{
  "source": "patent US9872870B2",
  "about": "“Multifunctional micellar nanoparticle-based drug and targeting agent system” (University of Notre Dame du Lac, priority 2011, dated 2018)",
  "key": {"[1]": {"experiment": "Systemic toxicity in tumor bearing mice (body weight, lethality, blood count, organ weights, histopathology)", "format": "in vivo, CB.17 SCID mice", "experimental": "(§1) To validate the therapeutic efficacy of multifunctional nanoparticles, CB.17 SCID mice (Harlan Laboratories) were irradiated with 150 rad, and were inoculated subcutaneously with 5×10^6 NCI-H929 cells. […] When the tumors were palpable, each mouse was injected with the drug, intravenously, on days 1, 3, and 5. […] Animals were monitored for body weight and tumor volume by caliper measurements. Tumor growth inhibition was detected by caliper measurements (left). Data shown are means (±SE) of n=6-8 per treatment group. Statistical comparisons of continuous variables were carried out by Student's two-tailed t-test and were considered significant when P<0.05.\n(§2) For determination of systemic toxicity, 3 additional mice from each group were sacrificed on day 5 before any lethality was observed. Organ weights were measured. For complete blood count analysis, 200 μl of blood was drawn from each mouse via cardiac puncture, immediately mixed with 50 μl of Sequester Solution (Cambridge Diagnostic Products), and was analyzed with the HemaVet950 (Drew Scientific). Immunohistochemical staining of excised tumors for caspase-3 was performed as previously described.\nTo evaluate systemic toxicity, analysis of complete blood cell count, which is highly susceptible to chemotherapeutic agents, was performed. Three mice from each group were dissected on day 5, and complete blood count (white blood cell, red blood cell, and thrombocyte) was performed (FIG. 12e). Data represents means (±SE). *P<0.05, when compared to free Dox group."}, "NCI-H929 cells [2]": {"system": "NCI-H929 cells", "experiment": "DNA double strand breaks and apoptosis (western blot, immunocytochemistry, Annexin V)", "format": "cell-based, human", "conditions": "250 nM Dox equivalents, 0-48 h", "experimental": "It is well established that Dox induces DNA double strand breaks (DSBs) and apoptosis of cancer cells. An early specific cellular response to DSBs in mammalian cells is the phosphorylation of the histone protein H2AX (γ-H2AX), with respective foci formation. Therefore, we examined whether free Dox and NPDox/VLA-4-pep triggered similar signaling cascades of DNA damage and apoptosis in MM cells. […] Phosphorylation of DNA damage response protein H2AX at Ser139 was assayed by western blotting (FIG. 10a). Respective H2AX foci formation was assayed by immunocytochemistry (FIG. 10b). Apoptosis was assessed by flow cytometry following Annexin V-FITC staining (FIG. 10c), and by western blotting for PARP cleavage and caspase-8 and caspase-9 activation (FIG. 10d).\nFor immunocytochemistry analysis, cytospins of drug-treated cells were prepared on glass slides and fixed with 4% paraformaldehyde. Slides were blocked with 5% goat serum, incubated with y-H2AX antibody (Cell Signaling) overnight at 4° C., and then with AlexaFluor-488-labelled Fab2 (Molecular Probes). Coverslips were then mounted on the glass slides with VectaShield antifade/DAR (Vector Labs) and analyzed by Nikon Eclipse TS100 fluorescence microscope at 60×/0.5-1.25 oil, with a Nikon Infinity camera. For flow cytometric analysis, data represent means (±SD) of triplicate experiments. For western blotting, representative images are shown, and all antibodies were purchased from Cell Signaling."}, "NCI-H929 MM cells": {"system": "NCI-H929 MM cells", "experiment": "Cytotoxicity assay (Cell Counting Kit-8)", "format": "cell-based, human", "conditions": "Dox equivalents", "experimental": "To determine cytotoxicity in the presence of fibronectin, MM cells were plated on fibronectin coated plates (40 μg/ml), in adhesion buffer, for 1 h. […] BSA coated plates were used as controls."}, "[3]": {"system": "NCI-H929 subcutaneous xenograft", "experiment": "Subcutaneous xenograft model of MM, tumor growth", "format": "in vivo, CB.17 SCID mice", "conditions": "6 mg/kg Dox equivalents iv on days 1, 3 and 5", "experimental": "as §1, §2\nThree mice from each group were dissected on day 5 and tumors were stained for activated caspase-3. Representative images of tumor cross-sections that were captured using a Nikon Eclipse TS100 microscope at 20× magnification are shown."}, "NCI-H929 cells [4]": {"system": "NCI-H929 cells", "experiment": "Cytotoxicity on fibronectin or BSA coated plates (CAM-DR)", "experimental": "Cytotoxicity assays: Cytotoxicity was determined using Cell Counting Kft-8 (Dojindo) as previously described. […] In all cases, cell viability was assessed by cell counting kit-8 (CCK-8), and data represent means (±SD) of triplicate cultures.\nCell viability was assessed by cell counting kit-8 (CCK-8), and data represent means (±SD) of triplicate cultures."}},
  "data": [
    {"smiles": "COc1cccc2c1C(=O)c1c(O)c3c(c(O)c1C2=O)C[C@@](O)(C(=O)CO)C[C@@H]3O[C@H]1C[C@H](N)[C@H](O)[C@H](C)O1", "note": "[free Dox, doxorubicin]", "values": [
      {"measurement": "lethality", "setting": "[1]; 6 mg/kg Dox equivalents iv on days 1, 3 and 5", "result": "lethality of all mice on day 7"},
      {"measurement": "body weight loss", "setting": "[1]; 6 mg/kg iv on days 1, 3 and 5", "result": "significant loss of body weight"},
      {"measurement": "liver mass loss and histopathology", "setting": "[1]; day 5", "result": "moderate hepatocellular hypertrophy and degeneration"},
      {"measurement": "spleen mass loss and histopathology", "setting": "[1]; day 5", "result": "severe fibrosis"},
      {"measurement": "H2AX phosphorylation", "setting": "NCI-H929 cells [2]", "result": "induced H2AX phosphorylation"},
      {"measurement": "apoptosis (annexin V, PARP and caspase-8 activation)", "setting": "NCI-H929 cells [2]", "result": "induced apoptosis"},
      {"measurement": "caspase-9 activation", "setting": "NCI-H929 cells [2]", "result": "No significant caspase-9 activation"},
      {"measurement": "IC50", "setting": "NCI-H929 MM cells; NCI-H929, 48 h", "result": "190 ± 40", "unit": "nM"},
      {"measurement": "IC50", "setting": "NCI-H929 MM cells; NCI-H929, 72 h", "result": "~130", "unit": "nM"},
      {"measurement": "tumor growth inhibition", "setting": "[3]", "result": "dramatic tumor growth inhibition"},
      {"measurement": "IC50, cytotoxicity in the presence of fibronectin", "setting": "NCI-H929 cells [4]", "result": "0.421-0.09 μM"},
      {"measurement": "IC50 shift caused by adhesion to fibronectin (CAM-DR)", "setting": "NCI-H929 cells [4]; fibronectin vs BSA coated plates, 72 h", "result": 3, "unit": "fold"}
    ]}
  ]
}
